# Structures can show the parent of a compound that is named as a salt.
# Tests used:
# [1] = target: T1, human carbonic anhydrase isoenzyme II (hCA II) (Homo sapiens, UniProt P00918); experiment: In vitro inhibition of human carbonic anhydrase isoenzyme II (hCA II), dansylamide fluorescence; type: biochemical; conditions: hCA II from erythrocytes 10^-7 M, 60 min, single measurements, read-out: hCA II inhibiting effect in vitro, IC50
# T1 construct: human carbonic anhydrase isoenzyme II from erythrocytes (Sigma-Aldrich); purchased Sigma-Aldrich; host or cells: human erythrocytes (natural source)
# Procedure: 1. In vitro Inhibition of Human Carbonic Anhydrase Isoenzyme II (hCA II)
# The test compounds of Formula I in 96 well microplates were diluted with aqua bidest by using an automatic pipettor (CyBiWell®). From the different dilution plates, aliquots of 20 μl were transferred to the 96 well black assay plates with a pipetting station (Tecan Genesis®). In a second step, 148 μl of potassium phosphate buffer (20 mM, pH 7.4) was added, and as a third step, 20 μl of enzyme solution (1 μM human carbonic anhydrase isoenzyme II from erythrocytes (Sigma-Aldrich), dissolved in potassium phosphate buffer) incubated for 60 min at room temperature and the fluorescence signal (Tecan Ultra® fluorescence reader; excitation wavelength: 280 nm; emission wavelength: 465 nm) read at the end of the preincubation period (FLU-1). After the preincubation time, 20 μl of aqueous dansylamide solution (1 mM dansylamide (Sigma-Aldrich), dissolved in hydrochloric acid) were added and the fluorescence signal read every 10 min for a period of 60 min at 37° C. For calculation, the fluorescence data of the time point 60 min (FLU-2) were used. The total volume of assay mixture amounted to 208 μl. The final concentration of carbonic anhydrase II was 10^−7 M/L, of dansylamide 2.25×10^−6 and of compounds from 10^−8 M/L up to 10^−5 M/L. Final concentration of DMSO as compound solvent was […]. Each microplate also contained blanks without compound and enzyme, controls without compound and ethoxzolamide (final concentration 5×10^−8 M/L). All data reflect single measurements. Data were expressed as % inhibition after calculation by the formula: % inhibition=100((1−(FLU−2cpd−FLU−2blank−FLU−1cpd+FLU−1blank)/(FLU−2control−FLU−2blank−FLU−1control−FLU−1blank))
# The % inhibition data for each compound and the respective final concentrations were used for IC50 calculations by using the Prism 4 software. Concentration action figures were calculated by applying the Prism algorithm for nonlinear regression (curve-fit): sigmoidal dose response with variable slope and the constraints: top: 100 and bottom 0.
# male C57Bl/6 mice = experiment: Acute in vivo food intake test in mice; conditions: high caloric diet, 100 mg/kg/day oral gavage in two halves
# Procedure: 3. Acute in vivo Food Intake Test in Mice
# The studies were carried out in individually housed male C57Bl/6 mice (n=8 per group). The mice were kept on an inverted 12/12 h light/dark cycle (lights on 22:00). They were allowed food (high caloric diet) and water ad libitum. Food intake and water consumption was measured daily. The test compound of Formula I was suspended in 1% methylcellulose in water and 2% (v/v) of Poloxamer 188 (Lutrol F68®) and administered by oral gavage at a dose of 100 mg/kg/day.
# In the test model described above, the test substances caused a decrease of the animals' 24 h food intake to the percentages of food intake when compared to control as given in table 3 below.
smiles,measurement,setting,value
"NS(=O)(=O)N1CCN(c2ccccc2)CC1 [Example 2, N-Sulfamoyl-N′-phenylpiperazine hydrochloride]",IC50,[1],5.1 µM
same,24 h food intake,male C57Bl/6 mice,68 % of control
